Test results published in publication PMC5321434, “Dihydrobenz[e][1,4]oxazepin-2(3H)-ones, a new anthelmintic chemotype immobilising whipworm and reducing infectivity in vivo” (PLoS Neglected Tropical Diseases, 2017).
Where two headings read alike, the source gives them in different places.

Key:
[1] = test system: adult T. muris; assay: Ex vivo adult T. muris automated motility assay (primary/secondary screen at 100 μM and dose-response); parameters: species or system Trichuris muris; conditions: for PRIMARY_SCREEN_MINUS_LOG_FOLD_CHANGE_MOVEMENT: primary screen; for PRIMARY_SCREEN_MINUS_LOG_FOLD_CHANGE_MOVEMENT / SECONDARY_SCREEN_MINUS_LOG_FOLD_CHANGE_MOVEMENT: adult T. muris motility; for SECONDARY_SCREEN_MINUS_LOG_FOLD_CHANGE_MOVEMENT: secondary screen
Procedure, shortened: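 Motility scored after 24 h (37 °C, 5% CO2) by automated imaging of pixel intensity variance, one worm per well, four weekly biological replicates. Worms came from SCID mice infected orally with 200 eggs, harvested day 35; screening at 100 μM final in RPMI-1640/antibiotics, 1% DMSO; curves fitted with four-parameter log-logistic model.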

[2] = test system: CMT-93 murine rectal epithelial cells; assay: WST-8 cytotoxicity assay; format: cell-based, mouse; conditions: CMT-93 cells, 72 hours, maximum tested concentration 100μM, n = 8, 95% confidence interval in parentheses
Method: (§1) CMT-93 murine rectal epithelial cells were maintained in Dulbecco's Modified Eagle's Medium (DMEM) with 10% fetal calf serum (FCS) and 1% penicillin-streptomycin solution (10,000U/ml). Cells were plated in 96-well tissue culture plates at a density of 2x10^2 cells per well in a volume of 100μl, and cultured for 96 hours (37°C, 5% CO2) until reaching 30% confluence. The growth medium was removed and replaced with treatment media (DMEM, 1% FCS, 1% penicillin-streptomycin solution, 100μl assay volume) supplemented with vehicle alone (DMSO), test compounds or chlorpromazine, a positive control for cytotoxicity (final concentrations from 0 to 100μM). Maximum vehicle concentration for all compounds was 0.5% DMSO. Cells were cultured with the test compounds for 72 hours before cytotoxicity measurement. The WST-8 assay was performed using the Cell Counting Kit– 8 (Sigma Aldrich # 96992). 10μl of the CCK-8 solution was added to each well, plates were incubated for a further 2 hours, before absorbance was measured at 450nm using a microplate reader. This assay measures the ability of metabolically active cells to reduce a water-soluble formazan dye. Results were analysed using GraphPad Prism and fitted using a log-logistic model.

[3] = test system: CMT-93 murine rectal epithelial cells; assay: Neutral red cytotoxicity assay; format: cell-based, mouse; conditions: CMT-93 cells, 72 hours, maximum tested concentration 100μM, n = 8, 95% confidence interval in parentheses
Method: (§2) CMT-93 murine rectal epithelial cells were maintained in Dulbecco's Modified Eagle's Medium (DMEM) with 10% fetal calf serum (FCS) and 1% penicillin-streptomycin solution (10,000U/ml). Cells were plated in 96-well tissue culture plates at a density of 2x10^2 cells per well in a volume of 100μl, and cultured for 96 hours (37°C, 5% CO2) until reaching 30% confluence. The growth medium was removed and replaced with treatment media (DMEM, 1% FCS, 1% penicillin-streptomycin solution, 100μl assay volume) supplemented with vehicle alone (DMSO), test compounds or chlorpromazine, a positive control for cytotoxicity (final concentrations from 0 to 100μM). Maximum vehicle concentration for all compounds was 0.5% DMSO. Cells were cultured with the test compounds for 72 hours before cytotoxicity measurement. Following the WST-8 assay, the medium was removed, cells were washed with 100μl PBS and then 100μl of neutral red medium (DMEM, 1% FBS and 33μg/ml neutral red dye (Sigma Aldrich #N2889) were added to each well, followed by incubation for a further 2 hours. The neutral red medium was removed, cells washed with 100μl of PBS and 100μl of destain solution (50% ethanol, 49% distilled water and 1% glacial acetic acid) were added. Each assay plate was shaken rapidly for 10 minutes before absorbance was measured at 540nm using a microplate reader. This assay measures the ability of living cells to actively take up the neutral red dye. Results were analysed using GraphPad Prism and fitted using a log-logistic model.

[4] = test system: embryonated T. muris eggs; assay: In vivo establishment of infection by compound-treated embryonated eggs; parameters: species or system Trichuris muris; conditions: for Reduction of infectivity in vivo of treated embryonated eggs: washed, 30 eggs by oral gavage to mice, worms counted day 15, versus DMSO control
Method: 100 infective embryonated eggs were incubated with water, water plus DMSO vehicle, or test compounds at a final concentration of 100μM for 14 days at room temperature. Eggs were then washed, re-suspended in water and 30 eggs given to a mouse via oral gavage. At day 15 post-infection, mice were culled and the number of worms present in the caecae and colon was counted. One data point was excluded: a water control individual mouse where there were technical difficulties with the oral gavage leading to the mouse regurgitating some of the T. muris eggs. It was ear marked at day of gavage and removed from the analysis.
We collected data using the same experimental design on different occasions, these are referred to as batches. Data were obtained from three batches (DMSO and water controls, batches [A,B,C]) or two batches (OX02983 [A,C], OX03153 [B,C]) with the total number of mice used, n, as follows: DMSO: 14, water: 16, OX02983: 10, OX03153: 12. The data were analysed by 2-way ANOVA (worms ~ treatment + batch + treatment * batch). There was no significant interaction effect (P = 0.14) or effect of batch (P = 0.47). We therefore combined the data from the three batches. […] We then conducted a post-hoc test using Tukey’s honest significant difference test.

[5] = WST-8 cytotoxicity assay; format: cell-based, mouse; conditions: mouse, CMT-93 rectal epithelial cells; resynthesised compound, WST-8 cytotoxicity; read-out: ResynCytotoxityWST-8(EC50uM)
Method: as §1

[6] = Neutral red cytotoxicity assay; format: cell-based, mouse; conditions: mouse, CMT-93 rectal epithelial cells; resynthesised compound, neutral red cytotoxicity; read-out: ResynCytotoxicityNeutralRed(EC50uM)
Method: as §2

[7] = test system: un-embryonated T. muris eggs; assay: Embryonation assay; parameters: species or system Trichuris muris; conditions: resynthesised compound, activity on T. muris embryonation (Yes/No)
Method: To assess whether the dihydrobenzoxazepinone compounds could also prevent embryonation, 100 un-embryonated eggs were treated with OX02983 and OX03153 at 100μM for 56 days in the dark at room temperature, then examined under an Olympus SD-ILK microscope for signs of embryonation.

[8] = test system: T. trichiura; conditions: cited from earlier work
[9] = test system: Ascaris; parameters: method as in PMID 18430913; conditions: annual treatment; cited from earlier work
[10] = test system: T. muris; conditions: associated with cuticular damage; cited from earlier work
[11] = test system: T. muris; conditions: associated with damage to nematode cuticle; cited from earlier work
[12] = Trichuris muris, resynthesised compound, adult T. muris paralysis, read-out: ResynActivityTmurisAdultParalysis(EC50uM)
[13] = combined primary and secondary screen minus log fold change in movement, adult T. muris, 100 μM
[14] = adult T. muris motility screen at 100 μM, combines primary and secondary screen minus log fold change in movement (mean where both are given)
[15] = Trichuris muris, values of Fig 5 shown for comparison, read-out: EC50 in adult Trichuris paralysis assay

## 1-(4-Methylbenzyl)-7-(pyridin-4-yl)-1,5-dihydrobenzo[e][1,4]oxazepin-2(3H)-one [OX03153]
[1]; values of Fig 5 shown for comparison, read-out: EC50 in adult Trichuris paralysis assay
  EC50: 57 µM
[2]
  EC50: > 100 µM
[3]
  EC50: > 100 µM
[4]; eggs soaked 14 days at 100μM
  Reduction of infectivity in vivo of treated embryonated eggs: not active

## CN(C)CCCN1c2ccccc2Sc2ccc(Cl)cc21 [Chlorpromazine, reference compound]
[2]; Mus musculus, CMT93
  EC50: 9 µM
[3]; Mus musculus, CMT93
  EC50: 10 µM

## Cc1ccc(CN2C(=O)COCc3cc(-c4ccncc4)ccc32)cc1 [Compound 1]
[1]; [12]
  EC50: 50 µM
[1]; [13]
  COMBINED_SCREEN_ACTIVITY: 8.615
[1]; 100 μM
  PRIMARY_SCREEN_MINUS_LOG_FOLD_CHANGE_MOVEMENT: 10.6993
  SECONDARY_SCREEN_MINUS_LOG_FOLD_CHANGE_MOVEMENT: 6.531
[5]
  EC50 at 72 h: > 100 µM
[6]
  EC50 at 72 h: > 100 µM
[4]; resynthesised compound, activity on T. muris egg infectivity (Yes/No)
  ResynActivityTmurisEggInfectivity: Yes
[7]
  ResynActivityTmurisEmbryonation: No

## O=C1COCc2cc(-c3cccnc3)ccc2N1CC1CCCCC1 [Compound 2]
[1]; [12]
  EC50: 52 µM
[1]; [13]
  COMBINED_SCREEN_ACTIVITY: 11.5091
[1]; 100 μM
  PRIMARY_SCREEN_MINUS_LOG_FOLD_CHANGE_MOVEMENT: 10.3993
  SECONDARY_SCREEN_MINUS_LOG_FOLD_CHANGE_MOVEMENT: 12.6188
[5]
  EC50 at 72 h: > 100 µM
[6]
  EC50 at 72 h: > 100 µM

## O=C1COCc2cc(-c3cccnc3)ccc2N1Cc1ccc(C(F)(F)F)cc1 [Compound 3]
[1]; [12]
  EC50: 26 µM
[1]; [13]
  COMBINED_SCREEN_ACTIVITY: 11.4716
[1]; 100 μM
  PRIMARY_SCREEN_MINUS_LOG_FOLD_CHANGE_MOVEMENT: 10.3243
  SECONDARY_SCREEN_MINUS_LOG_FOLD_CHANGE_MOVEMENT: 12.6188
[5]
  EC50 at 72 h: > 100 µM
[6]
  EC50 at 72 h: 60 µM

## Cc1ccc(CN2C(=O)COCc3cc(Br)ccc32)cc1 [Compound 4]
[1]; [12]
  EC50: 35 µM
[1]; [13]
  COMBINED_SCREEN_ACTIVITY: 11.5841
[1]; 100 μM
  PRIMARY_SCREEN_MINUS_LOG_FOLD_CHANGE_MOVEMENT: 10.5493
  SECONDARY_SCREEN_MINUS_LOG_FOLD_CHANGE_MOVEMENT: 12.6188
[5]
  EC50 at 72 h: 63 µM
[6]
  EC50 at 72 h: 47 µM

## CCN(CC)C(=O)c1cccc(-c2ccc3c(c2)N(Cc2ccccc2C)C(=O)COC3)c1 [Compound 191]
[1]; [14]
  COMBINED_SCREEN_ACTIVITY: 10.9041
[1]; 100 μM
  PRIMARY_SCREEN_MINUS_LOG_FOLD_CHANGE_MOVEMENT: 10.7743
  SECONDARY_SCREEN_MINUS_LOG_FOLD_CHANGE_MOVEMENT: 11.0339

## CN(C)C(=O)c1ccc(CN2C(=O)COCc3cc(-c4ccc5c(c4)OCO5)ccc32)cc1 [Compound 192]
[1]; [14]
  COMBINED_SCREEN_ACTIVITY: 10.5493
[1]; 100 μM
  PRIMARY_SCREEN_MINUS_LOG_FOLD_CHANGE_MOVEMENT: 10.5493

## c1ccc([C@H]2CN3CCSC3=N2)cc1 [Levamisole, reference compound]
[1]; Trichuris muris, single adult worms, 24 hours incubation, automated motility assay, EC50 ± standard error, n = 5 (OX03144 n = 10), read-out: EC50, attenuation of ex vivo T. muris adult motility
  EC50: 8 µM
[8]; single dose, no reference given
  Single-dose cure rate, trichiuriasis: 9%

## Cc1ccc(CN2C(=O)COCc3cc(-c4ccncc4)ccc32)cc1 [OX02983, 1-(4-Methylbenzyl)-7-(pyridin-4-yl)-1,5-dihydrobenzo[e][1,4]oxazepin-2(3H)-one]
[1]; [15]
  EC50: 50 µM
[2]; Mus musculus, CMT93
  EC50: > 100 µM
[3]; Mus musculus, CMT93
  EC50: > 100 µM
[4]; eggs soaked 14 days at 100μM, 30 eggs by oral gavage, day 15 post-infection
  Median worms establishing infection: 5.5 worms
[4]; eggs soaked 14 days at 100μM
  Reduction of infectivity in vivo of treated embryonated eggs: ~54%

## O=C1COCc2cc(-c3cccnc3)ccc2N1CC1CCCCC1 [OX02993, 1-(Cyclohexylmethyl)-7-(pyridin-3-yl)-1,5-dihydrobenzo[e][1,4]oxazepin-2(3H)-one]
[1]; [15]
  EC50: 52 µM
[2]; Mus musculus, CMT93
  EC50: > 100 µM
[3]; Mus musculus, CMT93
  EC50: > 100 µM

## O=C1COCc2cc(-c3cccnc3)ccc2N1Cc1ccc(C(F)(F)F)cc1 [OX03144, 7-(Pyridin-3-yl)-1-(4-(trifluoromethyl)benzyl)-1,5-dihydrobenzo[e][1,4]oxazepin-2(3H)-one]
[1]; [15]
  EC50: 26 µM
[2]; Mus musculus, CMT93
  EC50: > 100 µM
[3]; Mus musculus, CMT93
  EC50: 60 µM

## Cc1ccc(CN2C(=O)COCc3cc(Br)ccc32)cc1 [OX03146, 7-Bromo-1-(4-methylbenzyl)-1,5-dihydrobenzo[e][1,4]oxazepin-2(3H)-one]
[1]; [15]
  EC50: 35 µM
[2]; Mus musculus, CMT93
  EC50: 63 µM
[3]; Mus musculus, CMT93
  EC50: 47 µM

## CCCSc1ccc2nc(NC(=O)OC)[nH]c2c1 [albendazole]
[8]; single doses of benzimidazoles
  Cure rate for infection with T. trichiura: 28%
[9]
  Cure rate, Ascaris: up to 95%

## COc1c2ccoc2cc2oc(=O)ccc12 [bergapten]
[10]
  Activity against T. muris: activity against T. muris

## C/C=C/c1cc(OC)c2c(c1)OCO2 [isomyristicin]
[10]
  Activity against T. muris: activity against T. muris

## O=c1cc(-c2ccc(O)c(O)c2)oc2cc(O)cc(O)c12 [luteolin]
[10]
  Activity against T. muris: activity against T. muris

## CN1CCCN=C1/C=C/c1cccc(O)c1.O=C(O)c1cc2ccccc2c(Cc2c(O)c(C(=O)O)cc3ccccc23)c1O [oxantel pamoate]
[8]; children, optimal dose, dose-ranging study
  Single-dose cure rate, T. trichiura: 60%

## ficin
[11]
  Effect on motility of T. muris parasites in vitro: rapidly reduce motility

B1: papain (protein, UniProt P00784 134-345, looked up)
Papain: IPEYVDWRQKGAVTPVKNQGSCGSCWAFSAVVTIEGIIKIRTGNLNEYSEQELLDCDRRSYGCNGGYPWSALQLVAQYGIHYRNTYPYEGVQRYCRSREKGPYAAKTDGVRQVQPYNEGALLYSIANQPVSVVLEAAGKDFQLYRGGIFVGPCGNKVDHAVAAVGYGPNYILIKNSWGTGWGENGYIRIKRGTGNSYGVCGLYTSSFYPVKN
notes: purified protease
[11]
  Effect on motility of T. muris parasites in vitro: rapidly reduce motility
